From US4472320A (priority 1981, dated 1984)
Where a name gives a salt, the structure may show the parent alone.

Columns and labels:
[1] = molecular target: BuChE, horse (butyrylcholinesterase, EC 3.1.1.8) (Equus caballus, UniProt P81908); format: biochemical
[2] = molecular target: AChE, eel (acetylcholinesterase, EC 3.1.1.7) (Electrophorus electricus, UniProt O42275); format: biochemical, electric eel
guinea pigs = conditions: guinea pig, in vivo; cited from earlier work

AChE, eel (acetylcholinesterase, EC 3.1.1.7), sequence (O42275 24-633): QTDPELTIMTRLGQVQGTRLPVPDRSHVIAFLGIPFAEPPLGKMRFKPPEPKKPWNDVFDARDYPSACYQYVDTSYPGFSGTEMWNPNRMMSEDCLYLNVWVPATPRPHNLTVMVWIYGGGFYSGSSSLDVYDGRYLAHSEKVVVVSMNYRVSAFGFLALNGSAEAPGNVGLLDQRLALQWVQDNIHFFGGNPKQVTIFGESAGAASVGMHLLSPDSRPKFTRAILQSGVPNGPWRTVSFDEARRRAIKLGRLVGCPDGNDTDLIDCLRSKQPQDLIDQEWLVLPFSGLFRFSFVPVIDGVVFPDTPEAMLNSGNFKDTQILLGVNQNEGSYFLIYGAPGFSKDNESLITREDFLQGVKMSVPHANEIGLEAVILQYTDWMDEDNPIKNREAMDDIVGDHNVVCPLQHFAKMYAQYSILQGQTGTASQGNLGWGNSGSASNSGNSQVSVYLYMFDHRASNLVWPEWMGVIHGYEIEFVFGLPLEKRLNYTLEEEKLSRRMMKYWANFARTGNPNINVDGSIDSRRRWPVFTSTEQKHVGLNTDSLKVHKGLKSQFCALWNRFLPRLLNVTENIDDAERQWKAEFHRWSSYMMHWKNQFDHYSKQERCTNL
BuChE, horse (butyrylcholinesterase, EC 3.1.1.8), sequence (P81908 whole entry): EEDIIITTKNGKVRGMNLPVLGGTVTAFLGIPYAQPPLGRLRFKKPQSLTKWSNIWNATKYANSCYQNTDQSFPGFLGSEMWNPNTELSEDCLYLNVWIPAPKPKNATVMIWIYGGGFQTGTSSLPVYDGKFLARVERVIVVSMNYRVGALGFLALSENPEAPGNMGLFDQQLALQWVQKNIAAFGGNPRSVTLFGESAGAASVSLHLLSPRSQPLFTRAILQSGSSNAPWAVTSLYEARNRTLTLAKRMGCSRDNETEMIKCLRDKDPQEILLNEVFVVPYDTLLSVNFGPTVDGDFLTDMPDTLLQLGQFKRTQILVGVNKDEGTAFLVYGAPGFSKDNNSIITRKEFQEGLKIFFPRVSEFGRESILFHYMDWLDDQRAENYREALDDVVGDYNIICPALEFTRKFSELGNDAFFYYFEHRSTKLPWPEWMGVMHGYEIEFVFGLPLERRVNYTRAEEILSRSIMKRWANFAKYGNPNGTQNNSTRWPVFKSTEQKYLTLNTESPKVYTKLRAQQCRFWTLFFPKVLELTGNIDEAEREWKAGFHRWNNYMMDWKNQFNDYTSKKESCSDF

Row | SMILES | effect of oxime on reactivation of TDPI-inhibited BuChE [1] | effect of oxime on spontaneous reactivation of TDPI-inhibited AChE [2] | maximum dosage which does not result in side-effects (guinea pigs)
1 | C[n+]1ccccc1C=NO.[I-] [2-PAM, 2-hydroximinomethyl-1-methylpyridinium iodide] | enhanced the reactivation of horse serum BuChE | accelerated significantly the spontaneous reactivation | –
2 | C[n+]1cccc(C=NO)c1 [3-PAM] | – | did not enhance the regeneration of enzyme activity | –
3 | CNC(=O)Oc1ccc2c(c1)[C@]1(C)CCN(C)[C@@H]1N2C [physostigmine sulfate] | – | – | 0.1 mg/kg
4 | CN(C)C(=O)Oc1ccc[n+](C)c1 [pyridostigmine iodide] | – | – | 0.1 mg/kg
